Laboratory results published in US9234025B2, “Extracellular allosteric inhibitor binding domain from a tyrosine kinase receptor” (SANOFI, priority 2009, dated 2016).

Tests used:
[1] = target: T1, FGFR2 (Homo sapiens, UniProt P21802); experiment: FGF ligand binding to FGFR2 in intact cells; settings: receptor expressed in intact cells
T1 construct: or the expression of the entire intact receptor in its native environment

[2] = target: T2, FGF1 (Homo sapiens, UniProt P05230); experiment: ITC or STD-NMR, FGF1; type: binding
T2 construct: FGF1 (amino acids: 16-155); made in house
T2 sequence (P05230 16-155, species assumed): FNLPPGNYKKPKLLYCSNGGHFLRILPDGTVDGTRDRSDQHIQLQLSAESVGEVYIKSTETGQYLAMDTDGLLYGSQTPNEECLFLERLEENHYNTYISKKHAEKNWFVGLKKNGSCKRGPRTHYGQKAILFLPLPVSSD
Description: (§1) The extracellular domain (ECD; amino acids: 39-358) of the human FGFR1 gene (P11362) was PCR amplified and cloned into E. coli vector pETTEV (with a N-terminal His-tag followed by a TEV protease cleavage site), using NdeI and BamHI restriction sites. For protein production, the resulting plasmid (pET FGFR1 D1D2D3) was transformed into E. coli BL21(DE3) (Novagene). Cells were grown at 37° C. until the OD600 reached 0.6 and recombinant protein production was induced by adding 1 mM IPTG (isopropyl-b-D-thiogalactopyranoside). After 4 hours induction, cells were harvested and stored at −80° C. until usage. The cell pellet (1 L culture) was thawed and resuspended in 50 ml buffer 1 (20 mM Tris/HCl, pH 7.5, 200 mM NaCl) containing lysozyme (2 mg), and 40 U benzonase (Merck). […] Complex formation was analyzed by size exclusion chromatography and subsequent analysis on SDS-PAGE.
(§2) All STD- and 1D-NMR experiments were carried out on a BRUKER three-channel DRX600 and on a BRUKER four-channel DRX800 spectrometer at the standard temperature of 298 K and were referenced to the internal standard 3-Trimethyl-2,2,3,3-tetradeuteropropionate-sodium salt (TSP). […] For protein ligand 1D STD NMR measurements spectra were recorded with 1 mM ligand SSR128129E (100 mM DMSO stock solution) and […] protein with weak 2s RF irradiation on separated protein methyl resonances. […]

[3] = target: FGF2 (Homo sapiens, UniProt P09038); experiment: ITC or STD-NMR, FGF2; type: binding; set-up: FGF2 (amino acids 9-155); made in house
Chain of FGF2 (P09038 142-288): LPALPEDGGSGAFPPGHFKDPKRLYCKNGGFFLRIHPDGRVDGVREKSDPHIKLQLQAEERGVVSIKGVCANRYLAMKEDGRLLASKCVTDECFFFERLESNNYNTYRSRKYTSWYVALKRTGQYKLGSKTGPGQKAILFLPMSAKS
Description: as §1, §2

[4] = target: T3, FGFR1^∂3 (Homo sapiens, UniProt P11362); experiment: 1D-NMR, FGFR1 domain D3 fragment; type: binding
T3 construct: a fragment containing only domain D3 (FGFR1^∂3)
T3 sequence (P11362 255-357 limits assumed): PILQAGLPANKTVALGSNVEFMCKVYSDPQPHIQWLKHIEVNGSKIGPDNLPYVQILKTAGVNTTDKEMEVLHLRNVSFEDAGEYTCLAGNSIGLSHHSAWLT
Description: All STD- and 1D-NMR experiments were carried out on a BRUKER three-channel DRX600 and on a BRUKER four-channel DRX800 spectrometer at the standard temperature of 298 K and were referenced to the internal standard 3-Trimethyl-2,2,3,3-tetradeuteropropionate-sodium salt (TSP). Typically, NMR samples contained 0.5 ml of protein ([…]) in 25 mM Tris/HCl, pH 8.0, 200 mM NaCl, 25 mM L-arginine, 2 mM EDTA, 0.02% azide (in 95% H2O/5% D2O). For protein ligand 1D STD NMR measurements spectra were recorded with 1 mM ligand SSR128129E (100 mM DMSO stock solution) and […] protein with weak 2s RF irradiation on separated protein methyl resonances. Water suppression was carried out using the standard Bruker WATERGATE 3-9-19 sequence. NMR data were processed using the Bruker program xwin NMR software.
Since SSR was a multi-FGFR inhibitor, we used polypeptide fragments of the various (human) FGFR subtypes. […] We then used ECD fragments of FGFRs to map the binding site of SSR to one of the three Ig-domains. […] In fact, FGFR1^∂3 and FGFR1^∂123 give identical signals (broad line) meaning that we obtained same affinity for these proteins while FGFR1^∂12 and FGFR1^∂2 cause sharp lines (FIG. 11B).

[5] = target: T4, FGFR1-ECD (FGFR1^∂123/Fc) (Homo sapiens, UniProt P11362); experiment: scintillation proximity binding assay (SPA), 125I-FGF2 to FGFR1-ECD/Fc
T4 construct: FGFR1-ECD, consisting of the three Ig-like domains D1-3, coupled to a Fc-fragment (FGFR1^∂123/Fc)
T4 sequence (P11362 22-376 limits assumed): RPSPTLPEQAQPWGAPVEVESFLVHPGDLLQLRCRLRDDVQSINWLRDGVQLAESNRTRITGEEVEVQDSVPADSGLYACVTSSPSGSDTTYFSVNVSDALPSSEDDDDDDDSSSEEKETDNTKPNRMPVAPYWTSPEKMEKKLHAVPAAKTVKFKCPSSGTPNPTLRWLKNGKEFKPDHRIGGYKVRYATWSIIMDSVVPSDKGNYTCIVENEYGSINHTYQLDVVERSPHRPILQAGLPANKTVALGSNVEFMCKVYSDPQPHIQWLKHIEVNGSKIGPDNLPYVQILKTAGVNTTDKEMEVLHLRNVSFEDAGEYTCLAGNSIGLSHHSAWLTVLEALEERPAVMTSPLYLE
Excerpt: The objective of this study was to develop low molecular weight chemical compounds that bind to the FGFR extracellular domain (ECD) and inhibit FGFR signaling. Given that it is challenging to envisage how a small compound could interact with a much larger polypeptide (i.e. FGF) via simple steric hindrance for the orthosteric site, multiple ligand binding assay formats were utilized to determine whether any identified compounds were acting orthosterically of via an allosteric mechanism. We initially developed a high-throughput scintillation proximity binding assay (SPA) to identify compounds that inhibit the binding of ^125I-FGF2 to FGFR1-ECD, consisting of the three Ig-like domains D1-3, coupled to a Fc-fragment (FGFR1^∂123/Fc).

T1 sequence (P21802 22-821): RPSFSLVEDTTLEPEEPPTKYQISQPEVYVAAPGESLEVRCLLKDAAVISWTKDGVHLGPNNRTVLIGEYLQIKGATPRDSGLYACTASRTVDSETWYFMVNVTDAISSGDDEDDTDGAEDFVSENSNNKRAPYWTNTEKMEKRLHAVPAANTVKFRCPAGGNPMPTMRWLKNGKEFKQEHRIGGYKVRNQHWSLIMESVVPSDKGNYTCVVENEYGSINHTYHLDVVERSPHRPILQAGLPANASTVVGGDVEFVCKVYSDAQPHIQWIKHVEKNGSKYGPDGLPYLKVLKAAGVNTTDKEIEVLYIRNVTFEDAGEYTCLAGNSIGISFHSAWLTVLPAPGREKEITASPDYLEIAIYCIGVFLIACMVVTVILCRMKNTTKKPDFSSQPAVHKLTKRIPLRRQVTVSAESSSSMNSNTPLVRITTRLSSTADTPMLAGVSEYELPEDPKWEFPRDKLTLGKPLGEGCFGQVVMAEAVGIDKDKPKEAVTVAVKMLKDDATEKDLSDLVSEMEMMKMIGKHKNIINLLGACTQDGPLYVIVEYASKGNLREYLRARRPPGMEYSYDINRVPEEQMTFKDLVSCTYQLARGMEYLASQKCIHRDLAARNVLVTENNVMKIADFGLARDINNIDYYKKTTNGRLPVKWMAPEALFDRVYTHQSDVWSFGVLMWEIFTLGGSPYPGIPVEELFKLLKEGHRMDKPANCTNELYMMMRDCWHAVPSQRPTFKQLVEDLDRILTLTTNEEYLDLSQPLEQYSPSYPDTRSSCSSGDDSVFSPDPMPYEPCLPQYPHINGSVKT

COc1c(C)c(C(=O)c2ccc(N)c(C(=O)[O-])c2)n2ccccc12.[Na+] [SSR]
binding of FGF2 or FGF4 to FGFR2 [1]: failed to antagonize | binding to FGF1 [2]: failed to bind | binding to FGF2 [3]: failed to bind | binding to FGFR1 domain D3 fragment [4]: identified a binding site for SSR | inhibition of ^125I-FGF2 binding to FGFR1-ECD [5]: inhibited ^125I-FGF2 binding
